Laboratory results taken from article PMC6276119 (Biochemistry, 2016).

Target: AtHCT (Arabidopsis thaliana, UniProt Q9FI78)
Test: X-ray crystal structure
Format: binding

Sequence of AtHCT (Q9FI78 whole entry): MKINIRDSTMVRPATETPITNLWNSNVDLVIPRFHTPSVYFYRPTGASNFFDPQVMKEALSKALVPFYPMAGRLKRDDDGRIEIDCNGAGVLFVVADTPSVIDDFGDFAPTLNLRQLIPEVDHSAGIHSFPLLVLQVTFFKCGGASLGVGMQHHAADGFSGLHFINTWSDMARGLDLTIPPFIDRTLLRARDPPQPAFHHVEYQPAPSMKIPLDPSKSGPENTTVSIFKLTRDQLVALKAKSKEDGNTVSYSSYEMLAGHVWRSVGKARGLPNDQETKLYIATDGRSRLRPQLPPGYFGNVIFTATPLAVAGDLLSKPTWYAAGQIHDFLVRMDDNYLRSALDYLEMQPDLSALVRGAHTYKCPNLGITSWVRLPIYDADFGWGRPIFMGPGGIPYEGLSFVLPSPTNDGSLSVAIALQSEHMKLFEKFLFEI

Compound	X-ray crystal structure (soaked crystal) (acyl acceptor site, soaked with p-coumaroylshikimate in DMSO)	X-ray crystal structure (soaked crystal) (soaked with p-coumaroyl CoA in water)
O=C(/C=C/c1ccc(O)cc1)O[C@@H]1CC(C(=O)O)=C[C@@H](O)[C@H]1O [p-coumaroylshikimate]	apo-, p-coumaroyl CoA-bound, and p-coumaroyl shikimate-bound AtHCT	–
CC(C)(COP(=O)(O)OP(=O)(O)OC[C@H]1O[C@@H](n2cnc3c(N)ncnc32)[C@H](O)[C@@H]1OP(=O)(O)O)[C@@H](O)C(=O)NCCC(=O)NCCSC(=O)/C=C/c1ccc(O)cc1 [p-coumaroyl CoA]	–	apo-, p-coumaroyl CoA-bound, and p-coumaroyl shikimate-bound AtHCT
